Converted amounts (≈) assume the structure as drawn.
Tests used:
[1] = biological target: T1, Peptide deformylase, mitochondrial (Homo sapiens, UniProt Q9HBH1); experiment: Inhibition of human peptide deformylase after 1 hr by fluorescence polarization based competition assay
T1 sequence (Q9HBH1 whole entry): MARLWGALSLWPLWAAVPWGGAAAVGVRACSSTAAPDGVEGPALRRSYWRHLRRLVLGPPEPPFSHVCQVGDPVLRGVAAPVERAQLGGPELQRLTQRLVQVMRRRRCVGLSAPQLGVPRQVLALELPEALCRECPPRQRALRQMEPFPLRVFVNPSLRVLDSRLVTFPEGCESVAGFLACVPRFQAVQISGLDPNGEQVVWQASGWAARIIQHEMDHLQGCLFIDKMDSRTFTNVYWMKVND

Peptide deformylase = biological target: T2, Peptide deformylase (Escherichia coli, UniProt Q9JN24); experiment: Inhibition of Escherichia coli peptide deformylase after 1 hr by fluorescence polarization based competition assay
T2 sequence (Q9JN24 whole entry): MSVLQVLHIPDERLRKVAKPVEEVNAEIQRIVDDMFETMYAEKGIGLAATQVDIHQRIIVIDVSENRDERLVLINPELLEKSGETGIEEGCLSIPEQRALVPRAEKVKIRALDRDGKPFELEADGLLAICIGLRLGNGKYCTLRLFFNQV

[2] = biological target: T3, Peptide deformylase, mitochondrial (Homo sapiens) (UniProt Q9HBH1); experiment: Inhibition of human peptide deformylase at 100 uM after 1 hr by fluorescence polarization based competition assay
T3 sequence (whole entry): T1 sequence (Q9HBH1 whole entry)

[3] = biological target: T4, Peptide deformylase (Escherichia coli) (UniProt Q9JN24); experiment: Inhibition of Escherichia coli peptide deformylase at 100 uM after 1 hr by fluorescence polarization based competition assay
T4 sequence (whole entry): T2 sequence (Q9JN24 whole entry)

[4] = biological target: T5, Aminopeptidase N (Sus scrofa) (UniProt P15145); experiment: Inhibition of porcine kidney microsomal aminopeptidase N at 100 uM after 1 hr by fluorescence polarization based competition assay
T5 sequence (whole entry): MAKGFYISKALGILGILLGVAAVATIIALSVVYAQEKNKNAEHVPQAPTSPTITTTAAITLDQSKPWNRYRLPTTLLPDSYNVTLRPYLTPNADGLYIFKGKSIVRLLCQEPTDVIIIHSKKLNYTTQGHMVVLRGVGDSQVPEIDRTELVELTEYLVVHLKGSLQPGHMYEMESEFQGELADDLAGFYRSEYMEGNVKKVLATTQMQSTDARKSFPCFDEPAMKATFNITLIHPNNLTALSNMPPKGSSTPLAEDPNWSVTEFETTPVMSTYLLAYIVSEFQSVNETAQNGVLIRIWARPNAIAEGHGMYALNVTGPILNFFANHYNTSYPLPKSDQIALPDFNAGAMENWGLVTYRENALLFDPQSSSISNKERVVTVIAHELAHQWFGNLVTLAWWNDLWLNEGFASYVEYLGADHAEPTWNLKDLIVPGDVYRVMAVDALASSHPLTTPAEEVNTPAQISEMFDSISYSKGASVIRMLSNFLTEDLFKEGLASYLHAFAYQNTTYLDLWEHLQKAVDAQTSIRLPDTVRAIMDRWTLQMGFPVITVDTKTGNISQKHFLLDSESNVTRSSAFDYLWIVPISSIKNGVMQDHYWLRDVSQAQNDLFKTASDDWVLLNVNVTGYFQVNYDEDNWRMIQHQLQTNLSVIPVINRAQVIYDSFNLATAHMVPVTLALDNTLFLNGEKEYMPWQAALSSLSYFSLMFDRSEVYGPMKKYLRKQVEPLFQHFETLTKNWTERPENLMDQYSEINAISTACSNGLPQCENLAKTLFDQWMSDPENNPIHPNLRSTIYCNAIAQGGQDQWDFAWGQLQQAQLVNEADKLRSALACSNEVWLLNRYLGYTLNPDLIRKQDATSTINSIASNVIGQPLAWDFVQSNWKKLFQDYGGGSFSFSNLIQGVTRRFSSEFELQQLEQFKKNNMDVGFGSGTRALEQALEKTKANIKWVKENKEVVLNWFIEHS

[5] = biological target: T6, Interstitial collagenase (Homo sapiens) (UniProt P03956); experiment: Inhibition of human recombinant MMP1 at 100 uM after 1 hr by fluorescence polarization based competition assay
T6 sequence (whole entry): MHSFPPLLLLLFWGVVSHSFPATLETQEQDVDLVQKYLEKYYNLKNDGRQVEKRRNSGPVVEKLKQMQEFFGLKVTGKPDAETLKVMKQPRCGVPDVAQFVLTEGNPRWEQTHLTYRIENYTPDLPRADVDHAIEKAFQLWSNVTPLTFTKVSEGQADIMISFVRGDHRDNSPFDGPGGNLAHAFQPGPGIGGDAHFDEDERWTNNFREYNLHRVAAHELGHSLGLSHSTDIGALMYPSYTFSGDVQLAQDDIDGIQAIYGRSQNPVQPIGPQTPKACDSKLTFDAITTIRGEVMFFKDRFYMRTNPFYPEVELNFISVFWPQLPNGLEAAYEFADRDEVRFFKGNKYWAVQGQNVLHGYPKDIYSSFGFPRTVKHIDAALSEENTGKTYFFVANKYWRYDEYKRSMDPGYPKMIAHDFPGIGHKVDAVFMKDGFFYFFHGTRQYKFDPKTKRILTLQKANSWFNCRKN

HL-60 [6] = experiment: Cytotoxicity against human HL60 cells; assay type: functional, cell-based
HL-60 [7] = experiment: Cytotoxicity against human vincristine-resistant HL60 cells; assay type: functional, cell-based
Jurkat = experiment: Cytotoxicity against human Jurkat cells; assay type: functional, cell-based
MOLT-3 = experiment: Cytotoxicity against human MOLT3 cells; assay type: functional, cell-based
[8] = Cytotoxicity against human ALL3 cells; assay type: functional, cell-based
[9] = Cytotoxicity against human CWR22 cells; assay type: functional, cell-based
HEK293 = experiment: Cytotoxicity against human HEK293 cells; assay type: cell-based
Y79 = experiment: Cytotoxicity against human Y79 cells; assay type: functional, cell-based
[10] = Cytotoxicity against human Meso47 cells; assay type: functional, cell-based
[11] = biological target: T3, Peptide deformylase, mitochondrial (Homo sapiens); experiment: Inhibition of human peptide deformylase at 10 uM after 1 hr by fluorescence polarization based competition assay
Staphylococcus aureus = experiment: Antibacterial activity against Staphylococcus aureus ATCC 29213; assay type: functional
[12] = test system: Staphylococcus epidermidis; experiment: Antibacterial activity against Staphylococcus epidermidis ATCC 12228; assay type: functional
Streptococcus pyogenes = experiment: Antibacterial activity against Streptococcus pyogenes ATCC 19615; assay type: functional
Enterococcus faecalis = experiment: Antibacterial activity against Enterococcus faecalis ATCC 29212; assay type: functional
Enterococcus faecium = experiment: Antibacterial activity against Enterococcus faecium ATCC 19434; assay type: functional
Streptococcus pneumoniae = experiment: Antibacterial activity against Streptococcus pneumoniae ATCC 6301; assay type: functional
Haemophilus influenzae = experiment: Antibacterial activity against Haemophilus influenzae ATCC 49766; assay type: functional
Citrobacter freundii = experiment: Antibacterial activity against Citrobacter freundii ATCC 8090; assay type: functional
Enterobacter cloacae = experiment: Antibacterial activity against Enterobacter cloacae ATCC 13047; assay type: functional
Escherichia coli = experiment: Antibacterial activity against Escherichia coli ATCC 25922; assay type: functional
Cutibacterium acnes = experiment: Antibacterial activity against Propionibacterium acnes ATCC 11827; assay type: functional
Bacteroides fragilis = experiment: Antibacterial activity against Bacteroides fragilis ATCC 25285; assay type: functional
Candida albicans = experiment: Antifungal activity against Candida albicans ATCC 90028; assay type: functional

SMILES	IC50 [1]	IC50 (Peptide deformylase)	inhibition [2]	inhibition [3]	inhibition [4]	inhibition [5]	IC50 (HL-60 [6])	IC50 (HL-60 [7])	IC50 (Jurkat)	IC50 (MOLT-3)	IC50 [8]	IC50 [9]	IC50 (HEK293)	IC50 (Y79)	IC50 [10]	MIC (Staphylococcus aureus)	MIC [12]	MIC (Streptococcus pyogenes)	MIC (Enterococcus faecalis)	MIC (Enterococcus faecium)	also measured
COc1ccc(C(=O)c2coc3c2C(=O)C(=O)C(Br)=C3Br)cc1OC	10 µM	> 100 µM	100%	53%	96%	46%	42 µM	64 µM	28 µM	25 µM	36 µM	100 µM	100 µM	100 µM	100 µM						
O=C1C(=O)c2c(C(=O)c3ccccc3)coc2C(Cl)=C1Cl		> 100 µM	100%	65%	101%	41%		100 µM		31 µM	69 µM	72 µM	100 µM	100 µM	100 µM	> 64 µg/mL	> 64 µg/mL	> 64 µg/mL	> 64 µg/mL	> 64 µg/mL	inhibition [11]: 90%; MIC (Streptococcus pneumoniae): 4 µg/mL (≈ 12.5 µM); MIC (Haemophilus influenzae): > 64 µg/mL; MIC (Citrobacter freundii): > 64 µg/mL; MIC (Enterobacter cloacae): > 64 µg/mL; MIC (Escherichia coli): > 64 µg/mL; MIC (Cutibacterium acnes): > 64 µg/mL; MIC (Bacteroides fragilis): > 64 µg/mL; MIC (Candida albicans): > 64 µg/mL
CC(=O)C(C(C)=O)C1=C(Cl)C(=O)C(=O)c2c(C(=O)c3ccc(C)cc3)coc21																					inhibition [11]: 75%
O=C(O)c1cn(C2CC2)c2cc(N3CCNCC3)c(F)cc2c1=O [CIPROFLOXACIN]																0.5 µg/mL (≈ 1.51 µM)	≤ 0.12 µg/mL	0.25 µg/mL (≈ 0.754 µM)	0.25 µg/mL (≈ 0.754 µM)	4 µg/mL (≈ 12.1 µM)	MIC (Haemophilus influenzae): ≤ 0.12 µg/mL; MIC (Citrobacter freundii): ≤ 0.12 µg/mL; MIC (Escherichia coli): ≤ 0.12 µg/mL; MIC (Cutibacterium acnes): 0.25 µg/mL (≈ 0.754 µM); MIC (Bacteroides fragilis): 4 µg/mL (≈ 12.1 µM); MIC (Candida albicans): > 64 µg/mL
COc1ccc(C(=O)c2coc3c2C(=O)C(=O)C=C3)cc1	34 µM	> 100 µM	100%	24%	4%	6%	17 µM	27 µM	8.9 µM	9.1 µM	29 µM	35 µM	21 µM	31 µM	100 µM						
COc1ccc(C(=O)c2coc3c2C(=O)C(=O)C=C3Br)cc1	15 µM	> 100 µM	100%	26%	64%	8%	10 µM	38 µM	12 µM	11 µM	35 µM	46 µM		63 µM	100 µM						
COc1ccc(C(=O)c2coc3c2C(=O)C(=O)C(Cl)=C3Cl)cc1	15 µM	> 100 µM	88%	1%	50%	0%	10 µM	43 µM	6.1 µM	4.1 µM	27 µM	50 µM	30 µM	66 µM	100 µM	> 64 µg/mL	> 64 µg/mL	> 64 µg/mL	> 64 µg/mL	> 64 µg/mL	MIC (Streptococcus pneumoniae): 16 µg/mL (≈ 45.6 µM); MIC (Haemophilus influenzae): > 64 µg/mL; MIC (Citrobacter freundii): > 64 µg/mL; MIC (Enterobacter cloacae): > 64 µg/mL; MIC (Escherichia coli): > 64 µg/mL; MIC (Cutibacterium acnes): > 64 µg/mL; MIC (Bacteroides fragilis): > 64 µg/mL; MIC (Candida albicans): > 64 µg/mL
COc1ccc(C(=O)c2coc3c2C(=O)C(=O)C(Br)=C3Br)cc1	65 µM	> 100 µM	100%	22%	41%	23%	53 µM	100 µM	55 µM	40 µM	70 µM	70 µM	100 µM		100 µM						

Reference: ChEMBL document CHEMBL1806384, “Identification of benzofuran-4,5-diones as novel and selective non-hydroxamic acid, non-peptidomimetic based inhibitors of human peptide deformylase” (Bioorg Med Chem Lett, 2011)
